According to paper PMC9837035 (Nature Communications, 2023):
“And” between values parts separate entries of the source, which are not always exact repeats. Equal values may be shown once. Read-outs that look alike come from different tables or passages of the source.

Legend:
MLL4 [1] = molecular target: MLL4 (Homo sapiens, UniProt Q9UMN6); test: Radioisotope-based methyltransferase assay (selectivity); settings: MLL4, 1 μM SAM
ASH1L = molecular target: T1, ASH1L (Homo sapiens, UniProt Q9NR48); test: as above; assay type: biochemical; settings: ASH1L, read-out: IC50
T1 construct: purchased Reaction Biology

DOT1L = molecular target: T2, DOT1L (Homo sapiens, UniProt Q8TEK3); test: as above; assay type: biochemical
T2 construct: purchased Reaction Biology

[2] = tested on: Salmonella typhimurium TA100; test: Ames test, TA100
Procedure: (§1) The Salmonella mutagenicity assay was performed by pre-incubating the test compounds for 20 min with Salmonella typhimurium strains TA98 and TA100, with and without metabolic activation (S9 mixture).
(§2) After this time 2 mL of top agar was added to the mixture and poured on to a plate containing minimum agar. The plates were incubated at 37 °C for 49 h and the His ± revertant colonies were counted manually and automatically by a colony counter (Colony analyzer CA-11D systems, System science Co.,Ltd.). The influence of metabolic activation was tested by adding 500 μL of 10% S9 mixture. All experiments were performed in duplicate. […] DMSO served as the negative control (100 μL/plate). The mutagenic index (MI, the average number of revertants per plate divided by the average number of revertants per plate from the negative control) was also calculated for each dose. A sample was considered positive when the MI was equal to or greater than 2 for at least one of the tested doses.

[3] = tested on: Salmonella typhimurium TA98; test: Ames test, TA98
Procedure: as §1, §2

[4] = Caco-2 permeability assay; assay type: in vitro ADME; settings: human
Caco-2 = Caco-2 permeability assay; assay type: in vitro ADME; settings: replicate values
[5] = Liver microsomal stability assay, monkey; assay type: in vitro ADME; settings: for Metabolic stability, % remaining of RK-701: Monkey
Procedure: [Human/Rat] Liver microsome analyses (human, rat) were performed in triplicate by the Sumika Chemical Analysis Service (SCAS) according to the standard protocols. […] [Dog/Monkey] Liver microsome analyses (dog, monkey) were performed in duplicate by RIKEN according to the same protocols as SCAS.

NSD2 (E1099K) = NSD2 (E1099K) (Homo sapiens, UniProt O96028, E1099K)
PRMT6 = PRMT6 (Homo sapiens, UniProt Q96LA8)
EZH2 = EZH2 (Homo sapiens, UniProt Q15910); test: Radioisotope-based methyltransferase assay (selectivity)
EZH2 (Y641F) = EZH2 (Y641F) (Homo sapiens, UniProt Q15910, Y641F); test: as above
MLL4 [6] = test: as above; settings: MLL4, 1 μM SAM
NSD2 = NSD2 (Homo sapiens, UniProt O96028); test: as above
NSD2 (T1150A) = NSD2 (T1150A) (Homo sapiens, UniProt O96028, T1150A); test: as above
PRMT1 = PRMT1 (Homo sapiens, UniProt Q99873); test: as above

T2 sequence (Q8TEK3 whole entry): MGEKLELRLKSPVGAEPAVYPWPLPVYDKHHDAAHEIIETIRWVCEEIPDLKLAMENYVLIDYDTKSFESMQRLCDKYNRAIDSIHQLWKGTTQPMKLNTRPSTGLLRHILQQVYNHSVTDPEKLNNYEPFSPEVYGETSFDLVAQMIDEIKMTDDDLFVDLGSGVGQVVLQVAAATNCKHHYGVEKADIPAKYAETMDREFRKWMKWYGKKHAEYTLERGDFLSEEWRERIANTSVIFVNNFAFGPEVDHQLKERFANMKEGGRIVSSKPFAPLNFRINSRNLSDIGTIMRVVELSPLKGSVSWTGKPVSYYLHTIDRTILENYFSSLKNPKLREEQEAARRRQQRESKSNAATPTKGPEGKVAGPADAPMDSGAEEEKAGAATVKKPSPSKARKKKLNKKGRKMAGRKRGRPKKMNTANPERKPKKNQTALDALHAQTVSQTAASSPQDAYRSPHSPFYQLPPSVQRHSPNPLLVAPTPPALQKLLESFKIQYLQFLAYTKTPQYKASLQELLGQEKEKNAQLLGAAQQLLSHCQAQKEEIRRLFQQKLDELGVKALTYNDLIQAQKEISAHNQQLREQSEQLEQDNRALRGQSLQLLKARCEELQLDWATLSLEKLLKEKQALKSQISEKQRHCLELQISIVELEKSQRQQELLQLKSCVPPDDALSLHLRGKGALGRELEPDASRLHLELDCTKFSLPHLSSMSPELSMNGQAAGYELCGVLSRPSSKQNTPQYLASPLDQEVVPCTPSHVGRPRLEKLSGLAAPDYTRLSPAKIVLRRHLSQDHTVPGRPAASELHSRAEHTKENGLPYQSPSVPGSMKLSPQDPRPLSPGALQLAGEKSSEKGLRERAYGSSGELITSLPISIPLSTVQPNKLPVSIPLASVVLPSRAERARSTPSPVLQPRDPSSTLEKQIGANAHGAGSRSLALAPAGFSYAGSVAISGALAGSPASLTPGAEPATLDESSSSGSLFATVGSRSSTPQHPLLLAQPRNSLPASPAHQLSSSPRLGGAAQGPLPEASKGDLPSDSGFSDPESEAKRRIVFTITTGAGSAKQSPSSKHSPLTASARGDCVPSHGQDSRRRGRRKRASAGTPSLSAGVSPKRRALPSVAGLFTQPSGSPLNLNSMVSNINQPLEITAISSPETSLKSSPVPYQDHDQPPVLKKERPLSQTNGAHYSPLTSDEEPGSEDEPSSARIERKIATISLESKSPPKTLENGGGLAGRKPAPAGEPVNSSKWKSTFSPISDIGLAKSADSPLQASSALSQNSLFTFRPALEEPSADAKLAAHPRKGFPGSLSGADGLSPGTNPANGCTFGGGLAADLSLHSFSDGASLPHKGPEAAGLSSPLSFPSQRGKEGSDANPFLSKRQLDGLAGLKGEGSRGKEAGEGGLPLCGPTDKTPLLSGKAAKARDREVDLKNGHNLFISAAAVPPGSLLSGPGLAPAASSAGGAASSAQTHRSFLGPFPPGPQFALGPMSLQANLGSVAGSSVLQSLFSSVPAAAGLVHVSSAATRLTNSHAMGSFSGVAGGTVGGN
Chain of NSD2 (E1099K) (O96028 whole entry E1099K): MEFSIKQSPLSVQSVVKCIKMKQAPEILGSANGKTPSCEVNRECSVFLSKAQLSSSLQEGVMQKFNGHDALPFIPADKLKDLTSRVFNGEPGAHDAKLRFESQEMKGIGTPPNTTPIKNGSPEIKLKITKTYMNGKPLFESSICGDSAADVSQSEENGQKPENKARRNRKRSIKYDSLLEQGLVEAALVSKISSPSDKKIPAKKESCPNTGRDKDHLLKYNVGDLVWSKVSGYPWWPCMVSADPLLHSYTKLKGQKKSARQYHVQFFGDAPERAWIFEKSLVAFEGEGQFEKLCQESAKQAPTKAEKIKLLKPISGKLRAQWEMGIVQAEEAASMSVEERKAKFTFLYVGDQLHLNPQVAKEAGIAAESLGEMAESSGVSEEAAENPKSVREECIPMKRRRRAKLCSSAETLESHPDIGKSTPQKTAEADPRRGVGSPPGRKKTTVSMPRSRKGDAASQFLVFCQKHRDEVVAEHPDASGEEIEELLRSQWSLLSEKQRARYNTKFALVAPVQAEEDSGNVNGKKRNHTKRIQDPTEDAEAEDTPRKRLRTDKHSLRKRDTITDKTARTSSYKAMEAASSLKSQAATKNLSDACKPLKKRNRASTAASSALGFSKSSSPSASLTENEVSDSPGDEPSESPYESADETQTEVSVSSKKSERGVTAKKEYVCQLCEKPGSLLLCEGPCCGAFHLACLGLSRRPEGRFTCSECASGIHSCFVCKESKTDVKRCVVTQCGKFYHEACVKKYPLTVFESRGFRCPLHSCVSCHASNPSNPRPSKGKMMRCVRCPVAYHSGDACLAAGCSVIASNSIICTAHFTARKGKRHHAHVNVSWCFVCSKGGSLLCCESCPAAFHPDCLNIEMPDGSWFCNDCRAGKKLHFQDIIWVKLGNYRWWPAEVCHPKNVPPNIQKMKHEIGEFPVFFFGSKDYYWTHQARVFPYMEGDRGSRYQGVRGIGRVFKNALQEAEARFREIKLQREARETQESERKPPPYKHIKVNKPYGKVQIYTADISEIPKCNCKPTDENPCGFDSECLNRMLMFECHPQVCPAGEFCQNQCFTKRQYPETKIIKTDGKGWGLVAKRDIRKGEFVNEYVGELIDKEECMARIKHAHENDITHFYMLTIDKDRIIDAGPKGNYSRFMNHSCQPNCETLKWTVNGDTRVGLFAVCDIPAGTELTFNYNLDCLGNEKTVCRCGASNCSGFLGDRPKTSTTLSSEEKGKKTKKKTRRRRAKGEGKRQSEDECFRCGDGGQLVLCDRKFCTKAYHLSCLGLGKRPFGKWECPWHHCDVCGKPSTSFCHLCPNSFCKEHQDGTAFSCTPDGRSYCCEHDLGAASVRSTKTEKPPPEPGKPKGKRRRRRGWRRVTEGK
Chain of NSD2 (O96028 whole entry): as the sequence (O96028 whole entry E1099K) above, with K1099E counted along it
Chain of MLL4 (Q9UMN6 2490-2715): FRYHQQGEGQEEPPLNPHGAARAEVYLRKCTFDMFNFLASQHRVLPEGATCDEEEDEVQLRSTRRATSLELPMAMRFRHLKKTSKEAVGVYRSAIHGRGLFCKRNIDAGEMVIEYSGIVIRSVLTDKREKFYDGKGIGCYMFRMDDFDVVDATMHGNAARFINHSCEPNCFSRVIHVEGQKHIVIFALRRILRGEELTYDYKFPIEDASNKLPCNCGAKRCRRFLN
Chain of MLL4 (Q9UBL3 whole entry, further chain): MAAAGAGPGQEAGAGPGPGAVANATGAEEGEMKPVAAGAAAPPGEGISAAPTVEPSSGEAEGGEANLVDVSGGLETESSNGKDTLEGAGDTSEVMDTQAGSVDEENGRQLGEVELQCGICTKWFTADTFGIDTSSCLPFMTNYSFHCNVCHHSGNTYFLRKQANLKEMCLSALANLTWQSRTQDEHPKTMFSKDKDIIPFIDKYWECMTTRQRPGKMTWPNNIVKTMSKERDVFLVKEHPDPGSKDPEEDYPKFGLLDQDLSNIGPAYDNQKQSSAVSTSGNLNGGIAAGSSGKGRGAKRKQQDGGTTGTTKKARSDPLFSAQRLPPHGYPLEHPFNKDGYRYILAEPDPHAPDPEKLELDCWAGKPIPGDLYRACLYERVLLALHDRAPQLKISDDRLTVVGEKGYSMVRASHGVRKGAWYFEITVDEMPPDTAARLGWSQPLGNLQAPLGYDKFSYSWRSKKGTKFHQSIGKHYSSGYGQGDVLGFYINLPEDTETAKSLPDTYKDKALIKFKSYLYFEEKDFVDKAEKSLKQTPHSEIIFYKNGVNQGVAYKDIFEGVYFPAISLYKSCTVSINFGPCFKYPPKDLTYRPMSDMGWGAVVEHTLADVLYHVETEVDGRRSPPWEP
Chain of MLL4 (Q9C005 whole entry, further chain): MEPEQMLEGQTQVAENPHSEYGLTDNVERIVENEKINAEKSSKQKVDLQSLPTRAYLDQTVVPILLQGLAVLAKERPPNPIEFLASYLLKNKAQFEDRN
Chain of MLL4 (Q15291 whole entry, further chain): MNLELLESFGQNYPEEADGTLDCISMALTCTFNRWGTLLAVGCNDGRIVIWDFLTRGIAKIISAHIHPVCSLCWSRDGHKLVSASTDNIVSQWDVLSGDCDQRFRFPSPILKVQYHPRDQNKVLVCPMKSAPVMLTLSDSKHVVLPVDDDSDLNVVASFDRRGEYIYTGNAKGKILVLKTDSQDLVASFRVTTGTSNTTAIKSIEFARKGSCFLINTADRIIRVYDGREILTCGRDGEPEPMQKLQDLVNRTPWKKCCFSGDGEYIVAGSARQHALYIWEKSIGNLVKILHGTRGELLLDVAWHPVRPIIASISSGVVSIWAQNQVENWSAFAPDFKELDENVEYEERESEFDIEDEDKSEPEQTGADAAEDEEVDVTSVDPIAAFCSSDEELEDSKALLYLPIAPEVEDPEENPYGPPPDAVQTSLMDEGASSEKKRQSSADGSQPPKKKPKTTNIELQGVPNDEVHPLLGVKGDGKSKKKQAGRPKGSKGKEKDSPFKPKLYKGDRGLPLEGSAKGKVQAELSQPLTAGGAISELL
Chain of MLL4 (Homo sapiens, UniProt Q9UMN6) (Q9UMN6 2490-2715): as the sequence (Q9UMN6 2490-2715) above
Chain of MLL4 (Homo sapiens, UniProt Q9UMN6) (Q9UBL3 whole entry, further chain): as the sequence (Q9UBL3 whole entry, further chain) above
Chain of MLL4 (Homo sapiens, UniProt Q9UMN6) (Q9C005 whole entry, further chain): as the sequence (Q9C005 whole entry, further chain) above
Chain of MLL4 (Homo sapiens, UniProt Q9UMN6) (Q15291 whole entry, further chain): as the sequence (Q15291 whole entry, further chain) above
Chain of PRMT6 (Q96LA8 whole entry): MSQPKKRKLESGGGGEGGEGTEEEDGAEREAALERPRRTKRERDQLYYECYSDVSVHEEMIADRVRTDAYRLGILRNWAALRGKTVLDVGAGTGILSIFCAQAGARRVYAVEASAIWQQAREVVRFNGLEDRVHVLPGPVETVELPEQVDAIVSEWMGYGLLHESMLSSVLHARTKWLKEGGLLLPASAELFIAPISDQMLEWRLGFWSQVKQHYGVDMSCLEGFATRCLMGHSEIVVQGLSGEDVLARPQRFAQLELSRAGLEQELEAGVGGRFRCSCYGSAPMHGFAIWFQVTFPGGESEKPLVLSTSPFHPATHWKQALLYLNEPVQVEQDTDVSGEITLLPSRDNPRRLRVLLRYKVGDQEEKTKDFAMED
Chain of NSD2 (T1150A) (O96028 whole entry T1150A): as the sequence (O96028 whole entry E1099K) above, with K1099E, T1150A counted along it

For `Nc1ncnc2c1ncn2[C@@H]1O[C@H](CSCC[C@H](N)C(=O)O)[C@@H](O)[C@H]1O` [SAH, S-(5'-Adenosyl)-L-homocysteine, reference compound], the IC50 (MLL4 [1]) was 1.1 µM.
For `Cc1c(C(=O)NC(CCC2CC2)C(=O)Nc2ccc(C#N)cc2)[nH]c2c1C(=O)CC(C)(C)C2` (stereo not drawn) [RK-701], the IC50 (ASH1L; 1 μM SAM) was 79.4 µM, the IC50 (ASH1L; RK-701 in duplicate) was 80.4 µM and 78.4 µM and the IC50 (DOT1L; 1 μM SAM) was greater than 100 µM. For the same molecule, the IC50 (DOT1L; RK-701 in duplicate) was greater than 100 µM, the Number of reverants/plate ([2]; TA100, + S9, base pair substitution mutation, 4.88 μg/plate) was 107 and 119 and the Number of reverants/plate ([2]; TA100, + S9, base pair substitution mutation, 19.5 μg/plate) was 117 and 120. The Number of reverants/plate ([2]; TA100, + S9, base pair substitution mutation, 78.1 μg/plate) was 117 and 128, the Number of reverants/plate ([2]; TA100, + S9, base pair substitution mutation, 313 μg/plate) was 97 and 127 and the Number of reverants/plate ([2]; TA100, + S9, base pair substitution mutation, 1250* μg/plate) was 98 and 121. For the same molecule, the Number of reverants/plate ([2]; TA100, + S9, base pair substitution mutation, 2500* μg/plate) was 117 and 90, the Number of reverants/plate ([2]; TA100, + S9, base pair substitution mutation, 5000* μg/plate) was 111 and 110 and the Number of revertants/plate ([2]; TA100, +S9, 4.88 μg/plate) was 113. For the same molecule, the Number of revertants/plate ([2]; TA100, +S9, 19.5 μg/plate) was 119, the Number of revertants/plate ([2]; TA100, +S9, 78.1 μg/plate) was 123 and the Number of revertants/plate ([2]; TA100, +S9, 313 μg/plate) was 112. It also gave a Number of revertants/plate ([2]; TA100, +S9, 1250 μg/plate, insoluble material) of 110, a Number of revertants/plate ([2]; TA100, +S9, 2500 μg/plate, insoluble material) of 104 and a Number of revertants/plate ([2]; TA100, +S9, 5000 μg/plate, insoluble material) of 111. The Number of reverants/plate ([2]; TA100, - S9, base pair substitution mutation, 4.88 μg/plate) was 110 and 135, the Number of reverants/plate ([2]; TA100, - S9, base pair substitution mutation, 19.5 μg/plate) was 102 and 108 and the Number of reverants/plate ([2]; TA100, - S9, base pair substitution mutation, 78.1 μg/plate) was 90 and 106. For the same molecule, the Number of reverants/plate ([2]; TA100, - S9, base pair substitution mutation, 313 μg/plate) was 125 and 110, the Number of reverants/plate ([2]; TA100, - S9, base pair substitution mutation, 1250* μg/plate) was 99 and 94 and the Number of reverants/plate ([2]; TA100, - S9, base pair substitution mutation, 2500* μg/plate) was 98 and 108. For the same molecule, the Number of reverants/plate ([2]; TA100, - S9, base pair substitution mutation, 5000* μg/plate) was 93 and 98, the Number of revertants/plate ([2]; TA100, -S9, 4.88 μg/plate) was 123 and the Number of revertants/plate ([2]; TA100, -S9, 19.5 μg/plate) was 105. It also gave a Number of revertants/plate ([2]; TA100, -S9, 78.1 μg/plate) of 98, a Number of revertants/plate ([2]; TA100, -S9, 313 μg/plate) of 118 and a Number of revertants/plate ([2]; TA100, -S9, 1250 μg/plate, insoluble material) of 97. For the same molecule, the Number of revertants/plate ([2]; TA100, -S9, 2500 μg/plate, insoluble material) was 103, the Number of revertants/plate ([2]; TA100, -S9, 5000 μg/plate, insoluble material) was 96 and the mutagenicity ([2]; TA100, regardless of metabolic activation) was “no mutagenicity”. For the same molecule, the Number of reverants/plate ([3]; TA98, + S9, frameshift mutation, 4.88 μg/plate) was 28, the Number of reverants/plate ([3]; TA98, + S9, frameshift mutation, 19.5 μg/plate) was 29 and 28 and the Number of reverants/plate ([3]; TA98, + S9, frameshift mutation, 78.1 μg/plate) was 31 and 30. The Number of reverants/plate ([3]; TA98, + S9, frameshift mutation, 313 μg/plate) was 28, the Number of reverants/plate ([3]; TA98, + S9, frameshift mutation, 1250* μg/plate) was 32 and 28 and the Number of reverants/plate ([3]; TA98, + S9, frameshift mutation, 2500* μg/plate) was 28. For the same molecule, the Number of reverants/plate ([3]; TA98, + S9, frameshift mutation, 5000* μg/plate) was 28 and 23, the Number of revertants/plate ([3]; TA98, +S9, 4.88 μg/plate) was 28 and the Number of revertants/plate ([3]; TA98, +S9, 19.5 μg/plate) was 29. For the same molecule, the Number of revertants/plate ([3]; TA98, +S9, 78.1 μg/plate) was 31, the Number of revertants/plate ([3]; TA98, +S9, 313 μg/plate) was 28 and the Number of revertants/plate ([3]; TA98, +S9, 1250 μg/plate, insoluble material) was 30. The Number of revertants/plate ([3]; TA98, +S9, 2500 μg/plate, insoluble material) was 28, the Number of revertants/plate ([3]; TA98, +S9, 5000 μg/plate, insoluble material) was 26 and the Number of reverants/plate ([3]; TA98, - S9, frameshift mutation, 4.88 μg/plate) was 13 and 20. The Number of reverants/plate ([3]; TA98, - S9, frameshift mutation, 19.5 μg/plate) was 12 and 13, the Number of reverants/plate ([3]; TA98, - S9, frameshift mutation, 78.1 μg/plate) was 14 and 20 and the Number of reverants/plate ([3]; TA98, - S9, frameshift mutation, 313 μg/plate) was 14 and 12. For the same molecule, the Number of reverants/plate ([3]; TA98, - S9, frameshift mutation, 1250* μg/plate) was 11 and 12, the Number of reverants/plate ([3]; TA98, - S9, frameshift mutation, 2500* μg/plate) was 11 and 12 and the Number of reverants/plate ([3]; TA98, - S9, frameshift mutation, 5000* μg/plate) was 13 and 16. It also gave a Number of revertants/plate ([3]; TA98, -S9, 4.88 μg/plate) of 17, a Number of revertants/plate ([3]; TA98, -S9, 19.5 μg/plate) of 13 and a Number of revertants/plate ([3]; TA98, -S9, 78.1 μg/plate) of 17. For the same molecule, the Number of revertants/plate ([3]; TA98, -S9, 313 μg/plate) was 13, the Number of revertants/plate ([3]; TA98, -S9, 1250 μg/plate, insoluble material) was 12 and the Number of revertants/plate ([3]; TA98, -S9, 2500 μg/plate, insoluble material) was 12. The Number of revertants/plate ([3]; TA98, -S9, 5000 μg/plate, insoluble material) was 15, the mutagenicity ([3]; TA98, regardless of metabolic activation) was “no mutagenicity” and the Papp A→B ([4]; Caco-2, A to B, replicate values, read-out: Papp A to B) was 48 nm/s. The Papp A→B ([4]; Caco-2, Apical to Basal, read-out: Caco-2 permeability Papp A to B) was 52.3 ± 4.7 nm/s, the Papp B→A ([4]; Caco-2, B to A, replicate values, read-out: Papp B to A) was 195 nm/s and the Papp B→A ([4]; Caco-2, Basal to Apical, read-out: Caco-2 permeability Papp B to A) was 189 ± 9.2 nm/s. For the same molecule, the “Papp A to B” value (Caco-2; A to B) was 5.724 and 5.177, the “Papp B to A” value (Caco-2; B to A) was 17.8638 and 19.3603 and the “Metabolic stability, % remaining of RK-701” value ([5]; Time 5, replicate values) was 117%. For the same molecule, the “Metabolic stability, % remaining of RK-701” value ([5]; Time 10, replicate values) was 94.6%, the “Metabolic stability, % remaining of RK-701” value ([5]; Time 20, replicate values) was 60% and the “Metabolic stability, % remaining of RK-701” value ([5]; Time 30, replicate values) was 44.3%. For the same molecule, the “Metabolic stability, % remaining of RK-701” value ([5]; Time 45, replicate values) was 26%, the “Metabolic stability, % remaining of RK-701” value ([5]; Time 60, replicate values) was 19.4% and the remaining at 5 min, 1 µM ([5]; monkey, liver microsomes, Metabolic stability, % remaining of RK-701, Monkey, Time 5, replicate values) was 106%. It also gave a remaining at 10 min, 1 µM ([5]; monkey, liver microsomes, Metabolic stability, % remaining of RK-701, Monkey, Time 10, replicate values) of 85.8%, a remaining at 20 min, 1 µM ([5]; monkey, liver microsomes, Metabolic stability, % remaining of RK-701, Monkey, Time 20, replicate values) of 57.4% and a remaining at 30 min, 1 µM ([5]; monkey, liver microsomes, Metabolic stability, % remaining of RK-701, Monkey, Time 30, replicate values) of 42.4%. For the same molecule, the remaining at 45 min, 1 µM ([5]; monkey, liver microsomes, Metabolic stability, % remaining of RK-701, Monkey, Time 45, replicate values) was 24.2%, the remaining at 60 min, 1 µM ([5]; monkey, liver microsomes, Metabolic stability, % remaining of RK-701, Monkey, Time 60, replicate values) was 16.8% and the microsomal CLint at 1 μM ([5]; monkey, liver microsomes, read-out: Metabolic stability in liver microsomes CLint) was 67 µL/min/mg. It also gave an IC50 (NSD2 (E1099K)) greater than 100 µM, an IC50 (PRMT6) greater than 100 µM and an IC50 (EZH2) greater than 100 µM. It also gave an IC50 (EZH2 (Y641F)) greater than 100 µM, an IC50 (MLL4 [6]) greater than 100 µM and an IC50 (NSD2) greater than 100 µM. The IC50 (NSD2 (T1150A)) was greater than 100 µM and the IC50 (PRMT1) was greater than 100 µM.
